Source: patent publication US20230181614A1, “ADMINISTRATION OF CITICOLINE TO IMPROVE COGNITIVE PERFORMANCE, ATTENTIONAL PERFORMANCE, AND MOTOR FUNCTION” (KYOWA HAKKO BIO CO., LTD., priority 2014, published 2023)

Tested on: Healthy subjects, ages 13-18
Experiment: General Questionnaire
Format: in vivo, human
From the text: Study participants were screened by telephone prior to study enrollment. Healthy subjects, ages 13-18, with no significant medical conditions and no history of co-morbid psychiatric disorder, current Axis I or II diagnosis, or previous participation in a pharmacotherapeutic trial, were selected. Use of any psychotropic medication or any previous head injury resulting in loss of consciousness for 5 or more minutes were used as exclusion criteria. While no participant met criteria for a neuropsychiatric disorder at enrollment, clinical assessments were still completed throughout the study to evaluate changes in mood state. In addition, self-reports of sleep habits, lifestyle, and exercise routines were also administered at baseline as well as at each study visit to assess changes in health habits during study participation. Following the completion of Visit 1 assessment, participants were given their 28-day supply of citicoline (250 mg or 500 mg) or placebo, which was randomly assigned. They were instructed to take one capsule a day every day for the next 28 days. Visit 2 occurred fourteen days after Visit 1. At Visit 2, the remaining study pills were counted and participant dosage calendars were checked to ensure compliance with the protocol. Additional neuropsychological measures and clinical assessments were administered during this visit. Participants returned for Visit 3 fourteen days later, on the 28th day of their study participation. The pill bottle and the dosage calendar were collected from each participant. Urine and blood were again obtained. Participants also participated in similar clinical and neuropsychological testing and clinical measures that were given during visit 1. The General Questionnaire and Exercise and Life Style Questionnaire are self-report questionnaires designed to assess a variety of symptoms, behaviors, and self-perceptions, including mood, complexion, exercise, food, and alcohol habits of each of the participants. The General Questionnaire was administered during each of the three study visits; the Exercise and Life Style Questionnaire was administered during each of the three study visits. The General Questionnaire included five summary categories (Vision, Depression, Attention, Sleep, and Complexion) each of which had multiple individual items. Within and between group analyses are reported below for each of the summary categories.

C[N+](C)(C)CCOP(=O)(O)OP(=O)([O-])OC[C@H]1O[C@@H](n2ccc(N)nc2=O)[C@H](O)[C@@H]1O [citicoline, Cytidine 5′-diphosphocholine]
General Questionnaire Vision Q2, Mean (250 mg/day, V3 (day 28)): 2.44
General Questionnaire Vision Q3, Mean (250 mg/day, V3 (day 28)): 1.81
General Questionnaire Vision Total, Mean (250 mg/day, V3 (day 28)): 6.59
Attention Total V3-V1 Difference Mean (500 mg/day): -5.17
Complexion Total V3-V1 Difference Mean (500 mg/day): -1.42
Depression Total V3-V1 Difference Mean (500 mg/day): -5.21
Sleep Total V3-V1 Difference Mean (500 mg/day): -3.25
Vision Total V3-V1 Difference Mean (500 mg/day): -1.50
Attention Q13 V1 Mean (500 mg/day, Visit 1): 2.42
Attention Q14 V1 Mean (500 mg/day, Visit 1): 2.21
Attention Q15 V1 Mean (500 mg/day, Visit 1): 2.63
Attention Q16 V1 Mean (500 mg/day, Visit 1): 2.83
Attention Q17 V1 Mean (500 mg/day, Visit 1): 1.96
Attention Q18 V1 Mean (500 mg/day, Visit 1): 2.79
Attention Q19 V1 Mean (500 mg/day, Visit 1): 7.29
Attention Q20 V1 Mean (500 mg/day, Visit 1): 2.54
Attention Q21 V1 Mean (500 mg/day, Visit 1): 3.25
Attention Q22 V1 Mean (500 mg/day, Visit 1): 1.83
Attention Q23 V1 Mean (500 mg/day, Visit 1): 2.92
Attention Q24 V1 Mean (500 mg/day, Visit 1): 2.46
Attention Total V1 Mean (500 mg/day, Visit 1): 35.13
Complexion Q33 V1 Mean (500 mg/day, Visit 1): 2.58
Complexion Q34 V1 Mean (500 mg/day, Visit 1): 1.88
Complexion Total V1 Mean (500 mg/day, Visit 1): 4.46
Depression Q4 V1 Mean (500 mg/day, Visit 1): 1.75
Depression Q5 V1 Mean (500 mg/day, Visit 1): 2.46
Depression Q6 V1 Mean (500 mg/day, Visit 1): 2.21
Depression Q7 V1 Mean (500 mg/day, Visit 1): 3.13
Depression Q8 V1 Mean (500 mg/day, Visit 1): 1.92
Depression Q9 V1 Mean (500 mg/day, Visit 1): 3.04
Depression Q10 V1 Mean (500 mg/day, Visit 1): 2.00
Depression Q11 V1 Mean (500 mg/day, Visit 1): 2.00
Depression Q12 V1 Mean (500 mg/day, Visit 1): 2.04
Depression Total V1 Mean (500 mg/day, Visit 1): 20.54
Sleep Q25 V1 Mean (500 mg/day, Visit 1): 3.54
Sleep Q26 V1 Mean (500 mg/day, Visit 1): 2.54
Sleep Q27 V1 Mean (500 mg/day, Visit 1): 2.00
Sleep Q28 V1 Mean (500 mg/day, Visit 1): 2.96
Sleep Q29 V1 Mean (500 mg/day, Visit 1): 2.00
Sleep Q30 V1 Mean (500 mg/day, Visit 1): 2.04
Sleep Q31 V1 Mean (500 mg/day, Visit 1): 2.33
Sleep Q32 V1 Mean (500 mg/day, Visit 1): 3.54
Sleep Total V1 Mean (500 mg/day, Visit 1): 20.83
Vision Q1 V1 Mean (500 mg/day, Visit 1): 2.75
Vision Q2 V1 Mean (500 mg/day, Visit 1): 2.54
Vision Q3 V1 Mean (500 mg/day, Visit 1): 1.71
Vision Total V1 Mean (500 mg/day, Visit 1): 7.00
Attention Q13 V3 Mean (500 mg/day, Visit 3): 1.96
Attention Q14 V3 Mean (500 mg/day, Visit 3): 1.83
Attention Q15 V3 Mean (500 mg/day, Visit 3): 1.92
Attention Q16 V3 Mean (500 mg/day, Visit 3): 1.92
Attention Q17 V3 Mean (500 mg/day, Visit 3): 1.75
Attention Q18 V3 Mean (500 mg/day, Visit 3): 1.92
Attention Q19 V3 Mean (500 mg/day, Visit 3): 8.42
Attention Q20 V3 Mean (500 mg/day, Visit 3): 1.92
Attention Q21 V3 Mean (500 mg/day, Visit 3): 2.42
Attention Q22 V3 Mean (500 mg/day, Visit 3): 1.63
Attention Q23 V3 Mean (500 mg/day, Visit 3): 2.13
Attention Q24 V3 Mean (500 mg/day, Visit 3): 2.17
Attention Total V3 Mean (500 mg/day, Visit 3): 29.96
Complexion Q33 V3 Mean (500 mg/day, Visit 3): 1.75
Complexion Q34 V3 Mean (500 mg/day, Visit 3): 1.29
Complexion Total V3 Mean (500 mg/day, Visit 3): 3.04
Depression Q4 V3 Mean (500 mg/day, Visit 3): 1.58
Depression Q5 V3 Mean (500 mg/day, Visit 3): 1.88
Depression Q6 V3 Mean (500 mg/day, Visit 3): 1.67
Depression Q7 V3 Mean (500 mg/day, Visit 3): 2.25
Depression Q8 V3 Mean (500 mg/day, Visit 3): 1.46
Depression Q9 V3 Mean (500 mg/day, Visit 3): 2.00
Depression Q10 V3 Mean (500 mg/day, Visit 3): 1.54
Depression Q11 V3 Mean (500 mg/day, Visit 3): 1.38
Depression Q12 V3 Mean (500 mg/day, Visit 3): 1.58
Depression Total V3 Mean (500 mg/day, Visit 3): 15.33
Sleep Q25 V3 Mean (500 mg/day, Visit 3): 2.50
Sleep Q26 V3 Mean (500 mg/day, Visit 3): 1.71
Sleep Q27 V3 Mean (500 mg/day, Visit 3): 1.83
Sleep Q28 V3 Mean (500 mg/day, Visit 3): 2.29
Sleep Q29 V3 Mean (500 mg/day, Visit 3): 1.96
Sleep Q30 V3 Mean (500 mg/day, Visit 3): 1.96
Sleep Q31 V3 Mean (500 mg/day, Visit 3): 2.21
Sleep Q32 V3 Mean (500 mg/day, Visit 3): 3.13
Sleep Total V3 Mean (500 mg/day, Visit 3): 17.58
Vision Q1 V3 Mean (500 mg/day, Visit 3): 1.92
Vision Q2 V3 Mean (500 mg/day, Visit 3): 2.08
Vision Q3 V3 Mean (500 mg/day, Visit 3): 1.50
Vision Total V3 Mean (500 mg/day, Visit 3): 5.50
